Active and inactive are the calls of the source. The calls are words filed in the database; no cut-off is given here.
Legend:
SK-OV-3 [1] = assay: Cytotoxicity against human SKOV3 cells at 10 uM after 48 hrs by SRB assay; format: functional; details: SK-OV-3, 48 h
MCF7 [2] = assay: Cytotoxicity against human MCF7 cells at 10 uM after 48 hrs by SRB assay; format: functional; details: MCF7, 48 h
[3] = Cytotoxicity against human PLC/PRF/5 cells at 10 uM after 48 hrs by SRB assay; format: functional; details: PLC-PRF-5, 48 h
DU-145 = assay: Cytotoxicity against human DU145 cells at 10 uM after 48 hrs by SRB assay; format: functional; details: DU-145, 48 h
[4] = Cytotoxicity against human DLD1 cells at 10 uM after 48 hrs by SRB assay; format: functional; details: DLD-1, 48 h
A549 [5] = assay: Cytotoxicity against human A549 cells at 10 uM after 48 hrs by SRB assay; format: functional; details: A549, 48 h
[6] = Cytotoxicity against human A172 cells at 10 uM after 48 hrs by SRB assay; format: functional; details: A 172, 48 h
[7] = Cytotoxicity against human MIAPaCa2 cells at 10 uM after 48 hrs by SRB assay; format: functional; details: MIA PaCa-2, 48 h
Vero = assay: Cytotoxicity against African green monkey Vero cells after 48 hrs by SRB assay; format: cell-based; details: Chlorocebus sabaeus
PC-3 = assay: Cytotoxicity against human PC3 cells after 48 hrs by SRB assay; format: functional, cell-based; details: PC-3, 48 h
A549 [8] = assay: Cytotoxicity against human A549 cells after 48 hrs by SRB assay; format: functional, cell-based; details: A549, 48 h
MDA-MB-231 = assay: Cytotoxicity against human MDA-MB-231 cells after 48 hrs by SRB assay; format: functional, cell-based
MCF7 [9] = assay: Cytotoxicity against human MCF7 cells after 48 hrs by SRB assay; format: functional, cell-based; details: for IC50: MCF7, 48 h
SK-OV-3 [10] = assay: Cytotoxicity against human SKOV3 cells after 48 hrs by SRB assay; format: functional, cell-based; details: SK-OV-3, 48 h
[11] = Cytotoxicity against human A172 cells after 48 hrs by SRB assay; format: functional, cell-based; details: A 172, 48 h
4T1 = assay: Cytotoxicity against mouse 4T1 cells after 48 hrs by SRB assay; format: functional, cell-based
MCF7 [12] = assay: Induction of apoptosis in human MCF7 cells assessed as DNA fragmentation at 10 uM after 24 hrs […] by APOBrdU TUNNEL assay; format: functional, cell-based
MCF7 [13] = assay: Induction of apoptosis in human MCF7 cells assessed as viable cells after 24 hrs using 7-AAD/annexin-V staining by flow cytometry analysis; format: functional
MCF7 [14] = assay: Induction of apoptosis in human MCF7 cells assessed as late apoptotic cells after 24 hrs using 7-AAD/annexin-V staining by flow cytometry analysis; format: functional
MCF7 [15] = assay: Induction of apoptosis in human MCF7 cells assessed as necrotic cells after 24 hrs using 7-AAD/annexin-V staining by flow cytometry analysis; format: functional
MCF7 [16] = assay: Induction of apoptosis in human MCF7 cells assessed as early apoptotic cells after 24 hrs using 7-AAD/annexin-V staining by flow cytometry analysis; format: functional

SMILES | inhibition at 10 µM (SK-OV-3 [1]) | inhibition at 10 µM (MCF7 [2]) | inhibition at 10 µM [3] | inhibition at 10 µM (DU-145) | inhibition at 10 µM [4] | inhibition at 10 µM (A549 [5]) | inhibition at 10 µM [6] | inhibition at 10 µM [7] | other results
COc1ccc(C(=O)/C=C/c2nccc3c4ccccc4n(C)c23)cc1 | 37.4% | 8.18% | 16.9% | 9.1% | 28.2% | -3.88% | 0.18% | -0.03% | 
COc1ccc(C(=O)/C=C/c2nccc3c4ccccc4n(C)c23)cc1OC | 68.7% | 12.9% | 42.4% | 34.1% | 45.3% | 19.6% | 15.5% | 7.71% | 
COc1ccc(C(=O)/C=C/c2nccc3c2[nH]c2ccccc23)cc1 | 33.9% | 37.2% | 70.8% | 61.9% | 74.2% | 29.2% | 77.2% | 33.7% | 
CCn1c2ccccc2c2ccnc(/C=C/C(=O)c3ccc(C)cc3)c21 | 47.7% | 30% | 34.1% | 35% | 44.1% | 16.4% | 26.6% | 11.9% | 
CCn1c2ccccc2c2ccnc(/C=C/C(=O)c3cc(OC)c(OC)c(OC)c3)c21 | 68.5% | 32.7% | 70.7% | 60.1% | 73.4% | 44.4% | 81.1% | 24.7% | 
COc1cc(C(=O)/C=C/c2nccc3c4ccccc4n(C)c23)cc(OC)c1OC | 37.4% | 28.8% | 40.1% | 59.5% | 49.5% | 33.8% | 38.8% | 19% | 
COc1cc(C(=O)/C=C/c2nccc3c2[nH]c2ccccc23)cc(OC)c1OC | 36.6% | 86.8% | 73.9% | 76.1% | 80.6% | 73.4% | 65% | 84.8% | IC50 (Vero): > 10 µM; IC50 (PC-3): > 10 µM; IC50 (A549 [8]): 5.41 µM; Activity (MDA-MB-231): Dose-dependent effect; Activity (MCF7 [9]): Dose-dependent effect; IC50 (MCF7 [9]): 3290 nM; IC50 (SK-OV-3 [10]): > 10 µM; IC50 [11]: > 10 µM; Activity (4T1): Dose-dependent effect
O=C(/C=C/c1nccc2c1[nH]c1ccccc12)c1ccccc1 | 0.91% | 32.9% | 76.7% | 20.1% | 70.1% | 11.7% | 78.4% | 21.7% | 
Cn1c2ccccc2c2ccnc(/C=C/C(=O)c3ccccc3)c21 | 28.6% | 27.2% | 64.9% | 53.2% | 67.5% | 19.3% | 75.5% | 25.5% | 
CCn1c2ccccc2c2ccnc(/C=C/C(=O)c3ccccc3)c21 | 33.5% | 39.3% | 75.1% | 54.2% | 77.6% | 12.5% | 80.5% | 25% | 
CCn1c2ccccc2c2ccnc(/C=C/C(=O)c3ccc(OC)cc3)c21 | 43.7% | 27.2% | 61.6% | 52.5% | 55.5% | 21.2% | 39.2% | 9.18% | 
COc1ccc(C(=O)/C=C/c2nccc3c2[nH]c2ccccc23)cc1OC | 41.6% | 94.5% | 78.3% | 71.9% | 88.1% | 84.7% | 74.3% | 87.5% | Activity (MCF7 [12]): Active; Activity (MCF7 [13]): 37%; IC50 (Vero): > 10 µM; IC50 (PC-3): 5.99 µM; Activity (MCF7 [14]): 39.5%; IC50 (A549 [8]): 2.31 µM; Activity (MDA-MB-231): Dose-dependent effect; Activity (MCF7 [9]): Dose-dependent effect; IC50 (MCF7 [9]): 2250 nM; IC50 (SK-OV-3 [10]): > 10 µM; Activity (MCF7 [15]): 3.12%; IC50 [11]: 3.33 µM; Activity (4T1): Dose-dependent effect; Activity (MCF7 [16]): 20.4%
COc1cccc2c1C(=O)c1c(O)c3c(c(O)c1C2=O)C[C@@](O)(C(=O)CO)C[C@@H]3O[C@H]1C[C@H](N)[C@H](O)[C@H](C)O1 [DOXORUBICIN] | 69.2% | 56.9% | 90.7% | 73.9% | 73.2% | 69% | 67.6% | 85.1% | 
Cc1ccc(C(=O)/C=C/c2nccc3c4ccccc4n(C)c23)cc1 | 46.2% | 20.8% | 32.2% | 45.7% | 35.8% | 13.2% | 19.2% | 13.7% | 
Cc1ccc(C(=O)/C=C/c2nccc3c2[nH]c2ccccc23)cc1 | 5.1% | 20.9% | 70.5% | 11.4% | 42.4% | 9.91% | 60.5% | 2.1% | 
O=C(/C=C/c1nccc2c1[nH]c1ccccc12)c1ccc(F)cc1 | 8.15% | 9.92% | 49.9% | -5.2% | 25.6% | 6.73% | 16.2% | -4.04% | 
O=C(/C=C/c1nccc2c1[nH]c1ccccc12)c1ccc(Br)cc1 | -2.43% | 7.15% | 26.4% | -0.24% | 14.9% | 9.19% | 5.41% | -4.72% | 
CCn1c2ccccc2c2ccnc(/C=C/C(=O)c3ccc(OC)c(OC)c3)c21 | 57.6% | 29.6% | 56.2% | 56.8% | 66% | 35.6% | 70.1% | 15.3% | 
O=C(/C=C/c1nccc2c1[nH]c1ccccc12)c1ccc(Cl)cc1 | 0.2% | 15% | 80.5% | 7.63% | 41.2% | 4.68% | 75.8% | -13.1% | 
